In patent US10189845B2, “4,6-substituted-pyrazolo[1,5-a]pyrazines as janus kinase inhibitors” (ARRAY BIOPHARMA INC., priority 2014, dated 2019):
pIC50: −log10 of the molar value. Where a name gives a salt, the structure may show the parent alone. Read-outs that look alike come from different tables or passages of the source.

Tests used:
Assay type in all cases: biochemical
JAK2 = JAK2 (Homo sapiens (Human), UniProt O60674); assay: JAK2 Inhibition Assay (Example C, Omnia kinase fluorescence peptide substrate assay); settings: JAK2 Enzyme IC50 1 mM ATP, averaged IC50 ranges
Sequence of JAK2 (O60674 whole entry): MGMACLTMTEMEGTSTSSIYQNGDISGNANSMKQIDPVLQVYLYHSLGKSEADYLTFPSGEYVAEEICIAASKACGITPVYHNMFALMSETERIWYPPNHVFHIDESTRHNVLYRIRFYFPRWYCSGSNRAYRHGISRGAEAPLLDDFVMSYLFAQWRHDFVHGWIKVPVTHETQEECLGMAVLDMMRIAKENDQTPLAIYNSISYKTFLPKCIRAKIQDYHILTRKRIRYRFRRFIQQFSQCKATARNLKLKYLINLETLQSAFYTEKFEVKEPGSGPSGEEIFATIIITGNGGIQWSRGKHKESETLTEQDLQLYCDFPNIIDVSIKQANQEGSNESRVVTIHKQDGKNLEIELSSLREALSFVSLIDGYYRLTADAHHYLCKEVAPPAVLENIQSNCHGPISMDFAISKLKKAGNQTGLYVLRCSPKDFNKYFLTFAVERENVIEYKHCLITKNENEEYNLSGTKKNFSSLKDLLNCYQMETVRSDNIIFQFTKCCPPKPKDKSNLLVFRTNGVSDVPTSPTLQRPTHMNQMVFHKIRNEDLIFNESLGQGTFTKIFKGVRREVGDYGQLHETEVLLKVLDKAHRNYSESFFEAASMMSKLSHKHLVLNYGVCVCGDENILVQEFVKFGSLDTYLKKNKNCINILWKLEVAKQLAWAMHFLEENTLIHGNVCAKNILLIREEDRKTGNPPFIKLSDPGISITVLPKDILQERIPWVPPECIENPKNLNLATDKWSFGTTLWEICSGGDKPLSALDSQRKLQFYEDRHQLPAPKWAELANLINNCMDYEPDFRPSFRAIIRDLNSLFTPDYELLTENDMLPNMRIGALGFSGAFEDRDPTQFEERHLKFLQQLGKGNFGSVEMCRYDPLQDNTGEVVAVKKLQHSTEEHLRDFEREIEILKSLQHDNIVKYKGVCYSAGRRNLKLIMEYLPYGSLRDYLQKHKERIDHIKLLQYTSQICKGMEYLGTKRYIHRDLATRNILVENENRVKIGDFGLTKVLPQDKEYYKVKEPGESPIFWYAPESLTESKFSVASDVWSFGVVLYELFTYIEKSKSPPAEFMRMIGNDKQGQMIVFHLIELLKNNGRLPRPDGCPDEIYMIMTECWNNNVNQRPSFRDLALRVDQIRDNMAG
Summary of the method: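 4 nM JAK2 with 1 mM ATP and 10 μM Omnia Y7 peptide in 25 mM HEPES pH 7.4, 10 mM MgCl2, 0.01% Triton X-100, 1 mM DTT, 2% DMSO. Sox fluorescence (ex 360/em 485 nm) read every 50 s for 45 min; IC50 from 4-parameter fit of percent of control.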

Human Tyk2 kinase domain = Human Tyk2 kinase domain (Homo sapiens (Human), UniProt P29597); assay: Tyk2 Inhibition Assay (Example A, Omnia kinase fluorescence peptide substrate assay); settings: TYK2 Enzyme IC50 1 mM ATP, averaged IC50 ranges
Sequence of Human Tyk2 kinase domain (P29597 886-1187): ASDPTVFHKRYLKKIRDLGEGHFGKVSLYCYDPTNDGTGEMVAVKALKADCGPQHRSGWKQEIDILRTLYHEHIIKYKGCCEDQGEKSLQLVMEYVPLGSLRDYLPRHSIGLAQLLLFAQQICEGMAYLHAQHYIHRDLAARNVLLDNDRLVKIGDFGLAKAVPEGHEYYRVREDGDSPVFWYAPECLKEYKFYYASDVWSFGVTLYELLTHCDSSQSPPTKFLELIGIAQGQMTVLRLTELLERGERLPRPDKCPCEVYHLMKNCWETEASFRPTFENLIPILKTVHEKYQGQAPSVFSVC
Summary of the method: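 Omnia Sox-peptide kinetic fluorescence assay (ex 360/em 485 nm, read every 50 s for 45 min) with 1 nM human Tyk2 kinase domain (aa 886–1187, His tag cleaved, baculovirus-expressed), 1 mM ATP, 8 μM Omnia Y12 peptide, in 25 mM HEPES pH 7.4, 10 mM MgCl2, 0.01% Triton X-100, 1 mM DTT, 2% DMSO. IC50 from 4-parameter logistic fit of percent of control.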

JAK1 = JAK1 (Homo sapiens (Human), UniProt P23458); assay: JAK1 Inhibition Assay (Example B, Omnia kinase fluorescence peptide substrate assay)
Sequence of JAK1 (P23458 whole entry): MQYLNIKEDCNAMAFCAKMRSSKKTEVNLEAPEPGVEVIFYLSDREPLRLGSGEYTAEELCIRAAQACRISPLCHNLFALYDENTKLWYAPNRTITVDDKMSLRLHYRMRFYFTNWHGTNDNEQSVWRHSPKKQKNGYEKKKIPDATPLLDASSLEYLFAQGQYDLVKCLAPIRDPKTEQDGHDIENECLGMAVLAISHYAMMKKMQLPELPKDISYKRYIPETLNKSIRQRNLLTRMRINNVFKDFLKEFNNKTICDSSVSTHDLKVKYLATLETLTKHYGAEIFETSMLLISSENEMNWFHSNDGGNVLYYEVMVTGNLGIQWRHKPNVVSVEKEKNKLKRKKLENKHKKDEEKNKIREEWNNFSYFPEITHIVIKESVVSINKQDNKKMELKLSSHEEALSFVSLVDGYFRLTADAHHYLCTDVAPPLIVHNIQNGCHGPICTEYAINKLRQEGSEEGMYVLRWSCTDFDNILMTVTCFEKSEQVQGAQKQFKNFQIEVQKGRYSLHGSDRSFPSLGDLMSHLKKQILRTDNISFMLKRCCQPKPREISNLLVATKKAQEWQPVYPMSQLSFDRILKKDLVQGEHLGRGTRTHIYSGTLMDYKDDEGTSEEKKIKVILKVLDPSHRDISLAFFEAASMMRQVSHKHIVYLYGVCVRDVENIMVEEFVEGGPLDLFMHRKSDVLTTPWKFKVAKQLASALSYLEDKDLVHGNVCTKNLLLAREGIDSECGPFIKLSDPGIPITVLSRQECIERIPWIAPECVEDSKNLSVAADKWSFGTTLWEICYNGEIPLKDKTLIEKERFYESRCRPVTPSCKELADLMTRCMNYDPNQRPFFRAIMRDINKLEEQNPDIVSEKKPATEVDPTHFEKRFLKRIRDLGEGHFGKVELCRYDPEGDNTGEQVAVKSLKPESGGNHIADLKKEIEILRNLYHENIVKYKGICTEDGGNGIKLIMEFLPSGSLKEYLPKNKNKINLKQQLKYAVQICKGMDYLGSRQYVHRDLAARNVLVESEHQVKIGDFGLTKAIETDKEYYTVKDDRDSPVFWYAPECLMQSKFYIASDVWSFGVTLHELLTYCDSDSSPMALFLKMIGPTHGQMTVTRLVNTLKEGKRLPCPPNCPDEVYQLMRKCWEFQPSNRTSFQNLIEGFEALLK
Summary of the method: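 Recombinant human JAK1 (12.5 nM) with 1 mM ATP and 8 μM Omnia Y12 Sox-peptide in 25 mM HEPES pH 7.4, 10 mM MgCl2, 0.01% Triton X-100, 1 mM DTT, 2% DMSO final. Phosphorylation read kinetically (ex 360/em 485 nm, 45 min); IC50 from 4-parameter fit of percent of control.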

JAK3 = JAK3 (Homo sapiens (Human), UniProt P52333); assay: JAK3 Inhibition Assay (Example D, Omnia kinase fluorescence peptide substrate assay)
Sequence of JAK3 (P52333 whole entry): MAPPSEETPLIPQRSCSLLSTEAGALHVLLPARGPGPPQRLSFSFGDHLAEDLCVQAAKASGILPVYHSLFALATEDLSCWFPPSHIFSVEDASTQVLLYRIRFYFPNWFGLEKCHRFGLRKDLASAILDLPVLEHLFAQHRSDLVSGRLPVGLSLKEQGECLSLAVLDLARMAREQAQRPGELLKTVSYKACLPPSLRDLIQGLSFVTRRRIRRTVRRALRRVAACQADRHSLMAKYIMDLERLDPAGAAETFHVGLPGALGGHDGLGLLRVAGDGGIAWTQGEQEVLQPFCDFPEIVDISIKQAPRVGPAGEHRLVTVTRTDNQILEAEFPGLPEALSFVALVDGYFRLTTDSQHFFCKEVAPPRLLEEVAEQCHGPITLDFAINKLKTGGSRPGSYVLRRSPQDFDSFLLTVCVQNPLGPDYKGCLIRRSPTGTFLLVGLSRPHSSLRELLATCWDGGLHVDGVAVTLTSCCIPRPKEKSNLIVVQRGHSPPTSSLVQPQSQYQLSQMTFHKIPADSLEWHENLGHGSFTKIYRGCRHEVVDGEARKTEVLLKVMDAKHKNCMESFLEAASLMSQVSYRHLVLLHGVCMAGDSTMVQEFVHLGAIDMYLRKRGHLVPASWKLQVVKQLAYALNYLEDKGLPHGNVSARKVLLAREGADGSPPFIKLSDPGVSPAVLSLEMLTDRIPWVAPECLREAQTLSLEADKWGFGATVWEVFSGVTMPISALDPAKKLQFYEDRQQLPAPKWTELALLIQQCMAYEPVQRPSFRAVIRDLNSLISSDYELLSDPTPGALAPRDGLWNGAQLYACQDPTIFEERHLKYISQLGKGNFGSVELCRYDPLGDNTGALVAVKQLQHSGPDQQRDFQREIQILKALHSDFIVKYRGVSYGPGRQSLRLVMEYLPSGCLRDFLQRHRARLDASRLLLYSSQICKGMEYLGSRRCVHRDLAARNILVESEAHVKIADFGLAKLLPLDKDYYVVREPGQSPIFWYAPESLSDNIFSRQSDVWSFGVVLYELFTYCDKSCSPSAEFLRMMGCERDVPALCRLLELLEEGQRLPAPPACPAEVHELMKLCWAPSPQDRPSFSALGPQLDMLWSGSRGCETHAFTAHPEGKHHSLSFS
Summary of the method: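 Mixture held 2 nM JAK3, 1 mM ATP and 10 μM Omnia Y7 peptide in 25 mM HEPES pH 7.4, 10 mM MgCl2, 0.01% Triton X-100, 1 mM DTT, 2% DMSO final. Sox fluorescence (ex 360/em 485 nm) was read every 50 s for 45 min. IC50 came from a 4-parameter logistic fit of percent of control.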

[1] = JAK1 Enzyme IC50 1 mM ATP, 1 mM ATP, averaged IC50 ranges

Row | pIC50 (JAK2) | pIC50 (Human Tyk2 kinase domain) | pIC50 (JAK1) | pIC50 (JAK3) | pIC50 (JAK1; [1]) | SMILES
1 | 7.00 to 8.00 | 7.00 to 8.00 | 6.00 to 7.00 | 5.00 to 6.00 |  | CCC(CC)n1cc(-c2nc(-c3cnn(C4CCNCC4)c3)cn3nccc23)cn1 [Example 25, 4-(1-(pentan-3-yl)-1H-pyrazol-4-yl)-6-(1-(piperidin-4-yl)-1H-pyrazol-4-yl)pyrazolo[1,5a]pyrazine hydrochloride]
2 | 7.00 to 8.00 | 7.00 to 8.00 | 7.00 to 8.00 | 5.00 to 6.00 |  | CCC(CC)n1cc(-c2nc(-c3cnn(CCO)c3)cn3nccc23)cn1 [Example 20, 2-(4-(4-(l-(pentan-3-yl)-1H-pyrazol-4-yl)pyrazolo[1,5-a]pyrazin-6-yl)-1H-pyrazol-1-yl)ethanol]
3 | 6.00 to 7.00 | 7.00 to 8.00 |  | 5.00 to 6.00 | 6.00 to 7.00 | CCC(CC)n1cc(-c2nc(-c3cnn(C[C@H](O)CO)c3)cn3nccc23)cn1 [Example 55, (S)-3-(4-(4-(1-(pentan-3-yl)-1H-pyrazol-4-yl)pyrazolor[1,5-a]pyrazin-6-yl)-1H-pyrazol-1-yl)propane-1,2-diol]
4 | 7.00 to 8.00 | 7.00 to 8.00 | 6.00 to 7.00 | 5.00 to 6.00 |  | CCC(CC)n1cc(-c2nc(-c3cnn(C[C@@H](O)C(C)(C)O)c3)cn3nccc23)cn1 [Example 57, (R)-3-methyl-1-(4-(4-(1-(pentan-3-yl)-1H-pyrazol-4-yl)pyrazolo[1,5-a]pyrazin-6-yl)-1H-pyrazol-1-yl)butane-2,3-diol]
5 | 6.00 to 7.00 | 6.00 to 7.00 |  | 5.00 to 6.00 | 5.00 to 6.00 | CCC(CC)n1cc(-c2nc(-c3cnn(CC4(O)CCNCC4)c3)cn3nccc23)cn1 [Example 184, 4-((4-(4-(1-(pentan-3-yl)-1H-pyrazol-4-yl)pyrazolo[1,5-a]pyrazin-6-yl)-1H-pyrazol-1-yl)methyl)piperidin-4-ol]
6 | 6.00 to 7.00 | 6.00 to 7.00 | 5.00 to 6.00 | 5.00 to 6.00 |  | CCC(CC)n1cc(-c2nc(-c3cnn(C[C@@H](CN)OC)c3)cn3nccc23)cn1 (single isomer, unassigned) [Example 148]
7 | 6.00 to 7.00 | 6.00 to 7.00 | 5.00 to 6.00 | 5.00 to 6.00 |  | OC[C@H](O)Cn1cc(-c2cn3nccc3c(-c3cnn(C(C4CC4)C4CC4)c3)n2)cn1 [Example 216, (R)-3-(4-(4-(1-(dicyclopropylmethyl)-1H-pyrazol-4-yl)pyrazolo[1,5-a]pyrazin-6-yl)-1H-pyrazol-1-yl)propane-1,2-diol]
8 | 7.00 to 8.00 | 7.00 to 8.00 | 6.00 to 7.00 | 5.00 to 6.00 |  | CCC(CC)n1cc(-c2nc(-c3cnn(CCS(=O)(=O)N(C)C)c3)cn3nccc23)cn1 [Example 23, N,N-dimethyl-2-(4-(4-(1-(pentan-3-yl)-1H-pyrazol-4-yl)pyrazolo[1,5-a]pyrazin-6-yl)-1H-pyrazol-1-yl)ethanesulfonamide]
9 | 7.00 to 8.00 | 7.00 to 8.00 | 6.00 to 7.00 | 5.00 to 6.00 |  | CCC(CC)n1cc(-c2nc(-c3cnn([C@H](C)[C@@H](O)CO)c3)cn3nccc23)cn1 (single isomer, unassigned) [Example 92]
10 | 7.00 to 8.00 | 7.00 to 8.00 | 6.00 to 7.00 | 5.00 to 6.00 |  | CCC(CC)n1cc(-c2nc(-c3cnn(CCN4CC[C@@H](OC)C4)c3)cn3nccc23)cn1 [Example 136, (R)-6-(1-(2-(3-methoxypyrrolidin-1-yl)ethyl)-1H-pyrazol-4-yl)-4-(1-(pentan-3-yl)-1H-pyrazol-4-yl)pyrazolo[1,5-a]pyrazine]
11 | 7.00 to 8.00 | 7.00 to 8.00 | 6.00 to 7.00 | 5.00 to 6.00 |  | CCC(CC)n1cc(-c2nc(-c3cnn(CCS(C)(=O)=O)c3)cn3nccc23)cn1 [Example 22, 6-(1-(2-(methylsulfonyl)ethyl)-1H-pyrazol-4-yl)-4-(1-(pentan-3-yl)-1H-pyrazol-4-yl)pyrazolo[1,5-a]pyrazine]
12 | 6.00 to 7.00 | 6.00 to 7.00 |  | 5.00 to 6.00 | 5.00 to 6.00 | CCC(CC)n1cc(-c2nc(-c3cnn(C[C@H](O)CN4CCCC4)c3)cn3nccc23)cn1 [Example 105, (R)-1-(4-(4-(1-(pentan-3-yl)-1H-pyrazol-4-yl)pyrazolo[1,5-a]pyrazin-6-yl)-1H-pyrazol-1-yl)-3-(pyrrolidin-1-yl)propan-2-ol]
13 | 7.00 to 8.00 | 7.00 to 8.00 |  | 5.00 to 6.00 | 6.00 to 7.00 | CCC(CC)n1cc(-c2nc(-c3cnn(CCN(C)S(C)(=O)=O)c3)cn3nccc23)cn1 [Example 9, N-methyl-N-(2-(4-(4-(1-(pentan-3-yl)-1H-pyrazol-4-yl)pyrazolo[1,5-a]pyrazin-6-yl)-1H-pyrazol-1-yl)ethyl)methanesulfonamide]
14 | 5.00 to 6.00 | 7.00 to 8.00 |  | 5.00 to 6.00 | 5.00 to 6.00 | CCC(C(=O)O)n1cc(-c2nc(-c3cnn(C)c3)cn3nccc23)cn1 (stereo not drawn) [Example 44, 2-(4-(6-(1-methyl-1H-pyrazol-4-yl)pyrazolo[1,5-a]pyrazin-4-yl)-1H-pyrazol-1-yl)butanoic acid]
15 | 7.00 to 8.00 | 7.00 to 8.00 |  | 5.00 to 6.00 | 5.00 to 6.00 | CCC[C@@H](C)n1cc(-c2nc(-c3cnn(C[C@@H](O)CO)c3)cn3nccc23)cn1 [Example 73, (R)-3-(4-(4-(1-((R)-pentan-2-yl)-1H-pyrazol-4-yl)pyrazolo[1,5-a]pyrazin-6-yl)-1H-pyrazol-1-yl)propane-1,2-diol]
16 | 7.00 to 8.00 | 6.00 to 7.00 | 5.00 to 6.00 | 5.00 to 6.00 |  | CC[C@@H](C)n1cc(-c2nc(-c3cnn(C4CCS(=O)(=O)CC4)c3)cn3nccc23)cn1 [Example 21, (R)-4-(4-(4-(1-(sec-butyl)-1H-pyrazol-4-yl)pyrazolo[1,5-a]pyrazin-6-yl)-1H-pyrazol-1-yl)tetrahydro-2H-thiopyran 1,1-dioxide]
17 | 7.00 to 8.00 | 7.00 to 8.00 |  | 5.00 to 6.00 | 6.00 to 7.00 | C[C@@H]1CCCC[C@H]1n1cc(-c2nc(-c3cnn(C[C@@H](O)CO)c3)cn3nccc23)cn1 (single isomer, unassigned) [Example 151]
18 | 6.00 to 7.00 | 7.00 to 8.00 | 6.00 to 7.00 | 5.00 to 6.00 |  | CCC(CC)n1cc(-c2nc(-c3cnn(CC(=O)NC(C)C)c3)cn3nccc23)cn1 [Example 97, N-isopropyl-2-(4-(4-(1-(pentan-3-yl)-1H-pyrazol-4-yl)pyrazolo[1,5-a]pyrazin-6-yl)-1H-pyrazol-1-yl)acetamide]
19 | 6.00 to 7.00 | 5.00 to 6.00 |  | 5.00 to 6.00 | 5.00 to 6.00 | CC1(C)CCC[C@H]1n1cc(-c2nc(-c3cnn(C[C@@H](O)CO)c3)cn3nccc23)cn1 (single isomer, unassigned) [Example 96]
20 | 6.00 to 7.00 | 6.00 to 7.00 |  | 5.00 to 6.00 | 5.00 to 6.00 | CC(C)C[C@H](C)n1cc(-c2nc(-c3cnn(C[C@@H](O)CO)c3)cn3nccc23)cn1 [Example 75, (R)-3-(4-(4-(1-((S)-4-methylpentan-2-yl)-1H-pyrazol-4-yl)pyrazolo[1,5-a]pyrazin-6-yl)-1H-pyrazol-1-yl)propane-1,2-diol]
21 | 7.00 to 8.00 | 7.00 to 8.00 | 6.00 to 7.00 | 5.00 to 6.00 |  | CCC(CC)n1cc(-c2nc(-c3cnn([C@@H]4CCCNC4)c3)cn3nccc23)cn1 [Example 29, (R)-4-(1-(pentan-3-yl)-1H-pyrazol-4-yl)-6-(1-(piperidin-3-yl)-1H-pyrazol-4-yl)pyrazolo[1,5-a]pyrazine]
